Patent US20260199282A1, “METHODS AND COMPOSITIONS FOR IMPROVING DRIVING PERFORMANCE” (priority 2022, published 2026)
Several values for one entry are separate records, joined by “and”; a condition that tells them apart may be missing. Equal values may be shown once. Read-outs that look alike come from different tables or passages of the source.

Key:
[1] = system: participants with narcolepsy; assay: Toronto Hospital Alertness Test (THAT), narcolepsy study; format: in vivo, human; conditions: end of 7-day treatment period
Method: The Toronto Hospital Alertness Test (THAT) is a 10-item self-report questionnaire that measures perceived alertness over the previous week; scores can range from 0 to 50, with higher scores indicating greater alertness (Shapiro et al., 2006). This assessment was administered at the end of each 7-day treatment period to evaluate participants' perceived alertness throughout the treatment period.
Additional secondary efficacy measures (standard deviation of speed, number of lane drifts, and THAT scores) were analyzed using a similar ANOVA method as described for SDLP. No multiplicity adjustments were made in the efficacy analyses for multiple endpoints, and all p values are therefore nominal.

[2] = system: subjects with EDS due to OSA; assay: Toronto Hospital Alertness Test (THAT), OSA study; format: in vivo, human
Method: THAT is analyzed using a mixed effect analysis of covariance (ANCOVA) model. The model includes baseline, treatment (JZP-110 and placebo), treatment period, treatment sequence as fixed effects and subject as a random effect. *p-value is nominal.
The THAT is a 10-item self-report questionnaire designed to measure perceived alertness in the preceding week (Shapiro 2006). The test was administered at baseline and prior to administration of study drug at Visits 4 and 5

[3] = system: subjects with EDS due to OSA; set-up: species or system human; conditions: in vivo
[4] = system: subjects with EDS due to OSA; assay: Safety / adverse events, OSA study; format: in vivo, human
Method: The incidence of treatment-emergent adverse events was summarized by treatment. Descriptive statistics were presented for vital sign results. No formal statistical testing was performed for the safety analyses.
The use of vital signs, clinical laboratory tests, standard AE reporting, and the questionnaires that were selected to assess the safety of the study drug were appropriate since they are routinely used to assess the safety profile of drugs in clinical studies and pertinent to known risks of solriamfetol. The C-SSRS is able to determine clinically meaningful points at which a person may be at risk for an impending suicide attempt (Posner 2011).

[5] = system: participants with OSA; assay: Actual task effectiveness from PVT inverse reaction time, OSA; format: in vivo, human; conditions: OSA n=31
Method: (§1) Actual task effectiveness scores were calculated based on each participant's inverse reaction time (IRT [1/RT]) as described below. Sleep intervals derived from participants' actigraphy data—or from sleep diaries, if available, where actigraphy data were missing—were used to calculate modeled healthy control task effectiveness scores using the SAFTE. Participants evidenced good sleep hygiene, with minimal missing data. Task effectiveness was not modeled for participants missing data from the night before PVT testing. A SAFTE model effectiveness score of 100 indicates typical best performance during the day, based on a normal healthy population. SAFTE-FAST effectiveness predictions have been validated against IRT on the PVT [22].
(§2) Actual effectiveness scores were calculated as a percentage of a theoretical “best performance” from participants' average IRT per PVT trial (for all PVT test sessions, actual effectiveness=IRT/3.96×100). Average speed (IRT) on a PVT under optimal conditions—healthy sleepers taking the test at 11:00 in the morning, following an 8-hour sleep opportunity—is approximately 3.96 [40], and is assumed to represent an actual effectiveness score of 100 (a healthy participant's typical best performance). Repeated-measures analysis of variance (ANOVA) was used to estimate the effect of treatment on actual effectiveness over time.

[6] = system: participants with narcolepsy; assay: Actual task effectiveness from PVT inverse reaction time, narcolepsy; format: in vivo, human; conditions: narcolepsy n=20
Method: as §1, §2

[7] = system: participants with narcolepsy; set-up: species or system human; conditions: in vivo
[8] = system: participants with narcolepsy; conditions: 12 weeks; 75 to 300 mg/day; cited from earlier work
[9] = system: participants with narcolepsy; conditions: 12 weeks; 75 to 300 mg/day; cited from earlier work; remark: listed apart in the source
[10] = cited from earlier work

## NC(=O)OC[C@H](N)Cc1ccccc1 [Solriamfetol, (R)-2-amino-3-phenylpropyl carbamate]
[1]
  THAT score, LS mean (SE): 34.0 (1.4)
  THAT score, LS mean difference solriamfetol vs placebo: 7.1
[2]; PP population
  THAT total score, LS mean difference, sensitivity analysis: 2.983
[2]; end of treatment period, mITT
  THAT total score, LS mean (SE): 27.52
  THAT total score, mean (SD): 27.5 (7.60)
  THAT total score, median: 28.5
[2]; end of treatment period, mITT, listed as JZP-110
  THAT total score, LS mean (SE): 27.52 (1.162)
[2]; mITT
  THAT median total score, difference vs placebo: 4.0
  THAT total score, LS mean difference (JZP-110 − Placebo): 3.579
[3]
  PVT errors, LS mean (SE): 1.24 (0.58) n/trial and 1.84 (0.58) n/trial
  PVT inverse reaction time, LS mean (SE): 3.53 (0.04) 1/ms and 3.64 (0.04) 1/ms and 3.71 (0.04) 1/ms
  PVT lapses, LS mean (SE): 3.82 (0.90) n/trial and 3.02 (0.90) n/trial and 3.98 (0.90) n/trial
[4]; after receiving solriamfetol
  subjects with TEAE considered related to study treatment: 35.3%
[4]; in vivo
  serious or fatal TEAEs: no serious nor fatal TEAEs
[4]; received solriamfetol
  subjects with TEAE related or suspected related to study drug, n (%): 12 (35.3%)
[4]; receiving solriamfetol
  subjects experiencing TEAEs, n (%): 17 (50.0%)
[5]; 2 hours post-dose
  Actual task effectiveness, LS mean (SE): 91.88 (1.12)
  Actual task effectiveness, LS mean difference: −2.35
[5]; 6 hours post-dose
  Actual task effectiveness, LS mean (SE): 93.72 (1.12)
  Actual task effectiveness, LS mean difference: −1.35
[5]; pre-dose
  Actual task effectiveness, LS mean (SE): 89.19 (1.12)
  Actual task effectiveness, LS mean difference: −4.45
[6]; 2 hours post-dose
  Actual task effectiveness, LS mean (SE): 96.07 (1.65)
  Actual task effectiveness, LS mean difference: 10.41
[6]; 6 hours post-dose
  Actual task effectiveness, LS mean (SE): 93.89 (1.65)
  Actual task effectiveness, LS mean difference: 7.60
[6]; pre-dose
  Actual task effectiveness, LS mean (SE): 86.06 (1.65)
  Actual task effectiveness, LS mean difference: −6.16
[7]
  PVT errors, LS mean (SE): 1.11 (0.42) n/trial and 1.39 (0.42) n/trial and 1.34 (0.32) n/trial
  PVT inverse reaction time, LS mean (SE): 3.41 (0.07) 1/ms and 3.80 (0.07) 1/ms and 3.72 (0.07) 1/ms
  PVT lapses, LS mean (SE): 6.63 (1.61) n/trial and 3.35 (1.61) n/trial and 4.52 (1.61) n/trial
  PVT mean reaction time, LS mean (SE): 582 (148.4) ms and 317 (148.4) ms and 319 (148.4) ms
[8]
  Epworth Sleepiness Scale, treatment difference from placebo (least squares mean): −2.2 to −4.7 points
[9]
  Maintenance of Wakefulness Test, treatment difference from placebo (least squares mean): 2.6 to 10.1 min
[10]; fasting conditions
  mean half-life: 5.9 h
  median time to peak plasma concentration: 2 h
[10]; fed conditions
  mean half-life: 6.1 h
  median time to peak plasma concentration: 3 h
